Measurements as given in US20120295805A1, “SOLID PHASE METHODS FOR THE[…] KINETIC QUANTIFICATION OF INTERACTIONS BETWEEN NUCLEIC ACIDS AND SMALL MOLECULES” (priority 2011, published 2012).

Assays:
[1] = system: MB 5′ Fluorescein-CAATTCCTCT12GAATTG-BHQ1-C7-Amine 3′ with high affinity AATT site in the stem; experiment: TIRF-imaged melt curves of surface-immobilized molecular beacons (MB microarray); format: binding; conditions: 2 μM netropsin, 0.1 M pH 7 phosphate buffer, average of 9 spots
Method: The field of view is 4 mm diameter. (B) Melting curves of surface-immobilized MBs without and with 2 μM netropsin in 0.1 M phosphate buffer. […] (C) Melting curves under same conditions as in (B), but for MBs in solution. MBs were assumed closed once data with and without netropsin converged at lower temperatures.
BHQ1 is Black Hole Quencher 1, and the 3′ amine is used for surface immobilization via the stem. Repetition with the same MBs printed on commercial aldehyde microarray slides produced a 4-fold gain with transition observed at a similar temperature, FIG. 2A. […] (56-65) In such studies, opening of the MBs is driven by hybridization at the loop section, as opposed to thermal denaturation as in the data of FIG. 2. Efforts to improve the hybridization-induced gains included optimization of pH and salt composition (60-61, 63), insertion of spacers to distance MBs from the solid support, (63) changes in the chemical nature of the solid support (60-61), and isolation of MBs on the surface down to the single-molecule limit. (62) These approaches, however, have not solved the decreased gain, although effective workarounds have been found for hybridization applications (e.g. use of the solid support itself to provide better quenching (66-70)). Surface-immobilized SPs have also produced approximately 4-fold gains upon hybridization. (64) […]

DNA = conditions: reported for 0.016 M Na+ in ref. 38, corrected to 0.8 M Na+ using ref. 76; cited from earlier work
[2] = system: 10mer DNA sequence AGAATTGAGT possessing a high-affinity site (-AATT-); experiment: Electrochemically-determined surface melt curves (solid phase DNA denaturation, cyclic voltammetry of ferrocene-labeled strand); format: binding; conditions: 2×10^−6 M netropsin
Source text: (B) Shape comparison of solution and surface melting transitions.
In this example, one strand was immobilized while the electroactively-labeled complementary strand was present in solution. Immobilization was realized through a single thiolate (—S—Au) linkage between DNA and the gold electrode support, with mercaptohexanol passivation used to block the remaining surface. (86) Hybridization occurred to the extent governed by thermodynamics under the imposed conditions of temperature and drug concentration. The extent of hybridization was tracked as a function of temperature with cyclic voltammetry, which allows determination of the coverage of double-stranded molecules from the total charge derived from their ferrocene labels. (87-88)
A number of noteworthy conclusions follow from FIG. 5A. The cooling and heating cycles superpose, confirming closeness to equilibrium at the tested scan rate of 0.4° C./min.
This is expected since netropsin prefers to bind to double-stranded DNA. (89) The free energy of binding (i.e. affinity) determined from the surface approach (FIG. 5A) is in reasonable agreement with solution methods. […]

In the case of `Cn1cc(NC(=O)c2cc(NC(=O)CN=C(N)N)cn2C)cc1C(=O)NCCC(=N)N` [netropsin], the “Effect on melt transition (TM) of surface-immobilized MBs” value [1] is listed as “TM shifting to higher temperatures”, the “ΔΔG°25C based on solution methods” value (DNA) is listed as -9.2 kcal/mol and the “Effect on denaturation transition (electrochemical melt curve)” value ([2]; 0.5 M pH 7 sodium phosphate buffer, scan rate 0.4° C./min) is listed as “shifts denaturation to higher temperatures”. For the same compound, the “ΔΔG°25C (increment of ΔG° of melting attributed to the drug; free energy of binding)” value ([2]; surface approach, 0.5 M pH 7 sodium phosphate buffer (0.8 M Na+), calculated at 25° C. from fitted ΔH° and ΔS°) was -8.9 kcal/mol.
